In PMC5569447 (Iranian Journal of Basic Medical Sciences, 2017):
Peptide text beside a SMILES is read from it.

System: Mtb strain H37Rv ATCC 27294
Conditions: 24 h

## NC(=O)CC[C@H](NC(=O)[C@@H]1CCCN1C(=O)[C@@H]1CCCN1)C(=O)O [PPQ] (H-Pro-Pro-Gln-OH)
  MABA MIC: >800 µM
